Data on 32 molecules can be found in patent US7524869B2, “Taxanes having a C10 ester substituent” (Florida State University Research Foundation, Inc., priority 2000, dated 2009).

For this assay, the system named is HCT116. Briefly: In vitro cytotoxicity measured by the cell colony formation assay. Format: cell-based. Conditions: HCT116 cells, 72 h drug incubation, colonies counted after 7 days; ID50 = drug concentration producing 50% inhibition of colony formation; read-out: IN VITRO ID 50 (nm) HCT116. Here is the method: In Vitro Cytotoxicity Measured by the Cell Colony Formation Assay
Four hundred cells (HCT116) were plated in 60 mm Petri dishes containing 2.7 mL of medium (modified McCoy's 5a medium containing 10% fetal bovine serum and 100 units/mL penicillin and 100 µg/mL streptomycin). The cells were incubated in a CO2 incubator at 37° C. for 5 h for attachment to the bottom of Petri dishes. The compounds identified in Example 2 were made up fresh in medium at ten times the final concentration, and then 0.3 mL of this stock solution was added to the 2.7 mL of medium in the dish. The cells were then incubated with drugs for 72 h at 37° C. At the end of incubation the drug-containing media were decanted, the dishes were rinsed with 4 mL of Hank's Balance Salt Solution (HBSS), 5 mL of fresh medium was added, and the dishes were returned to the incubator for colony formation. The cell colonies were counted using a colony counter after incubation for 7 days.
For `CCC(=O)O[C@H]1C(=O)[C@@]2(C)C([C@H](OC(=O)c3ccccc3)[C@]3(O)C[C@H](OC(=O)[C@H](O)[C@@H](NC(=O)OCC(C)C)c4cccs4)C(C)=C1C3(C)C)[C@]1(OC(C)=O)CO[C@@H]1C[C@@H]2O` (some centres unmarked) [Compound 3163], the IC50 is less than 1 nM.

For the molecule `CCCC(=O)O[C@H]1C(=O)[C@@]2(C)C([C@H](OC(=O)c3ccccc3)[C@]3(O)C[C@H](OC(=O)[C@H](O)[C@@H](NC(=O)OCC(C)C)c4ccsc4)C(C)=C1C3(C)C)[C@]1(OC(C)=O)CO[C@@H]1C[C@@H]2O` (some centres unmarked) [Compound 4834], the IC50 is less than 10 nM.

In the case of `CCC(=O)O[C@H]1C(=O)[C@@]2(C)C([C@H](OC(=O)c3ccccc3)[C@]3(O)C[C@H](OC(=O)[C@H](O)[C@H](C=C(C)C)NC(=O)c4ccccc4)C(C)=C1C3(C)C)[C@]1(OC(C)=O)CO[C@@H]1C[C@@H]2O` (some centres unmarked) [Compound 0625], the IC50 was less than 1 nM.

For the molecule `CCCC(=O)N[C@@H](c1ccco1)[C@@H](O)C(=O)O[C@H]1C[C@@]2(O)[C@@H](OC(=O)c3ccccc3)C3[C@](C)(C(=O)[C@H](OC(=O)CCC)C(=C1C)C2(C)C)[C@@H](O)C[C@H]1OC[C@@]31OC(C)=O` (some centres unmarked) [Compound 3222], the IC50 was less than 1 nM.

For the molecule `CC(=O)O[C@@]12CO[C@@H]1C[C@H](O)[C@@]1(C)C(=O)[C@H](OC(=O)C3CC3)C3=C(C)[C@@H](OC(=O)[C@H](O)[C@@H](NC(=O)c4ccccc4)c4ccncc4)C[C@@](O)([C@@H](OC(=O)c4ccccc4)C12)C3(C)C` (some centres unmarked) [Compound 2855], the IC50 is less than 1 nM.

`CCCC(=O)O[C@H]1C(=O)[C@@]2(C)C([C@H](OC(=O)c3ccccc3)[C@]3(O)C[C@H](OC(=O)[C@H](O)[C@@H](NC(=O)OCC(C)C)c4ccoc4)C(C)=C1C3(C)C)[C@]1(OC(C)=O)CO[C@@H]1C[C@@H]2O` (some centres unmarked) [Compound 4704]: the IC50 is less than 10 nM.

Regarding `CC(=O)O[C@@]12CO[C@@H]1C[C@H](O)[C@@]1(C)C(=O)[C@H](OC(=O)C3CC3)C3=C(C)[C@@H](OC(=O)[C@H](O)[C@@H](NC(=O)OCC(C)C)c4ccoc4)C[C@@](O)([C@@H](OC(=O)c4ccccc4)C12)C3(C)C` (some centres unmarked) [Compound 4665], the IC50 was less than 10 nM.

With `CCOC(=O)N[C@@H](c1cccs1)[C@@H](O)C(=O)O[C@H]1C[C@@]2(O)[C@@H](OC(=O)c3ccccc3)C3[C@](C)(C(=O)[C@H](OC(=O)CC)C(=C1C)C2(C)C)[C@@H](O)C[C@H]1OC[C@@]31OC(C)=O` (some centres unmarked) [Compound 3370], the IC50 is less than 1 nM.

For the molecule `CCCC(=O)O[C@H]1C(=O)[C@@]2(C)C([C@H](OC(=O)c3ccccc3)[C@]3(O)C[C@H](OC(=O)[C@H](O)[C@@H](NC(=O)c4cccs4)c4ccco4)C(C)=C1C3(C)C)[C@]1(OC(C)=O)CO[C@@H]1C[C@@H]2O` (some centres unmarked) [Compound 3656], the IC50 is less than 1 nM.

As for `CC(=O)O[C@@]12CO[C@@H]1C[C@H](O)[C@@]1(C)C(=O)[C@H](OC(=O)C3CC3)C3=C(C)[C@@H](OC(=O)[C@H](O)[C@@H](NC(=O)c4ccccc4)c4ccoc4)C[C@@](O)([C@@H](OC(=O)c4ccccc4)C12)C3(C)C` (some centres unmarked) [Compound 2826], the IC50 is less than 1 nM.

In the case of `CC(=O)O[C@@]12CO[C@@H]1C[C@H](O)[C@@]1(C)C(=O)[C@H](OC(=O)C3CC3)C3=C(C)[C@@H](OC(=O)[C@H](O)[C@@H](NC(=O)c4ccccc4)c4ccco4)C[C@@](O)([C@@H](OC(=O)c4ccccc4)C12)C3(C)C` (some centres unmarked) [Compound 0908], the IC50 was less than 1 nM.

As for `CC(=O)O[C@@]12CO[C@@H]1C[C@H](O)[C@@]1(C)C(=O)[C@H](OC(=O)C3CC3)C3=C(C)[C@@H](OC(=O)[C@H](O)[C@@H](NC(=O)OC(C)(C)C)c4ccoc4)C[C@@](O)([C@@H](OC(=O)c4ccccc4)C12)C3(C)C` (some centres unmarked) [Compound 2781], the IC50 is less than 1 nM.

For `CCCC(=O)N[C@@H](c1cccs1)[C@@H](O)C(=O)O[C@H]1C[C@@]2(O)[C@@H](OC(=O)c3ccccc3)C3[C@](C)(C(=O)[C@H](OC(=O)C4CC4)C(=C1C)C2(C)C)[C@@H](O)C[C@H]1OC[C@@]31OC(C)=O` (some centres unmarked) [Compound 3132], the IC50 was less than 1 nM.

Take `CCC(=O)O[C@H]1C(=O)[C@@]2(C)C([C@H](OC(=O)c3ccccc3)[C@]3(O)C[C@H](OC(=O)[C@H](O)[C@@H](NC(=O)c4ccccc4)C(C)C)C(C)=C1C3(C)C)[C@]1(OC(C)=O)CO[C@@H]1C[C@@H]2O` (some centres unmarked) [Compound 0719]: the IC50 is less than 10 nM.

Turning to `CCC(=O)O[C@H]1C(=O)[C@@]2(C)C([C@H](OC(=O)c3ccccc3)[C@]3(O)C[C@H](OC(=O)[C@H](O)[C@@H](NC(=O)OC(C)(C)C)c4ccccn4)C(C)=C1C3(C)C)[C@]1(OC(C)=O)CO[C@@H]1C[C@@H]2O` (some centres unmarked) [Compound 0503], the IC50 is less than 1 nM.

As for `CCC(=O)O[C@H]1C(=O)[C@@]2(C)C([C@H](OC(=O)c3ccccc3)[C@]3(O)C[C@H](OC(=O)[C@H](O)[C@@H](NC(=O)OC(C)(C)C)C4CC4)C(C)=C1C3(C)C)[C@]1(OC(C)=O)CO[C@@H]1C[C@@H]2O` (some centres unmarked) [Compound 0578], the IC50 was less than 1 nM.

Take `CC(=O)O[C@@]12CO[C@@H]1C[C@H](O)[C@@]1(C)C(=O)[C@H](OC(=O)C3CC3)C3=C(C)[C@@H](OC(=O)[C@H](O)[C@@H](NC(=O)OC(C)(C)C)c4ccc([N+](=O)[O-])cc4)C[C@@](O)([C@@H](OC(=O)c4ccccc4)C12)C3(C)C` (some centres unmarked) [Compound 0879]: the IC50 was less than 1 nM.

With `CC(=O)O[C@@]12CO[C@@H]1C[C@H](O)[C@@]1(C)C(=O)[C@H](OC(=O)C3CC3)C3=C(C)[C@@H](OC(=O)[C@H](O)[C@@H](NC(=O)OCC(C)C)C4CC4)C[C@@](O)([C@@H](OC(=O)c4ccccc4)C12)C3(C)C` (some centres unmarked) [Compound 5232], the IC50 is less than 10 nM.

Consider `CC(=O)O[C@@]12CO[C@@H]1C[C@H](O)[C@@]1(C)C(=O)[C@H](OC(=O)C3CC3)C3=C(C)[C@@H](OC(=O)[C@H](O)[C@@H](NC(=O)c4ccccc4)c4ccc([N+](=O)[O-])cc4)C[C@@](O)([C@@H](OC(=O)c4ccccc4)C12)C3(C)C` (some centres unmarked) [Compound 2869], for which the IC50 was less than 10 nM.

Consider `CC(=O)O[C@@]12CO[C@@H]1C[C@H](O)[C@@]1(C)C(=O)[C@H](OC(=O)C(C)C)C3=C(C)[C@@H](OC(=O)[C@H](O)[C@@H](NC(=O)OC(C)(C)C)c4ccc([N+](=O)[O-])cc4)C[C@@](O)([C@@H](OC(=O)c4ccccc4)C12)C3(C)C` (some centres unmarked) [Compound 2320], for which the IC50 is less than 1 nM.

Turning to `C/C=C/C(=O)O[C@H]1C(=O)[C@@]2(C)C([C@H](OC(=O)c3ccccc3)[C@]3(O)C[C@H](OC(=O)[C@H](O)[C@@H](NC(=O)OC(C)(C)C)c4ccc([N+](=O)[O-])cc4)C(C)=C1C3(C)C)[C@]1(OC(C)=O)CO[C@@H]1C[C@@H]2O` (some centres unmarked) [Compound 2439], the IC50 is less than 10 nM.

As for `CC(=O)O[C@@]12CO[C@@H]1C[C@H](O)[C@@]1(C)C(=O)[C@H](OC(=O)C3CC3)C3=C(C)[C@@H](OC(=O)[C@H](O)[C@@H](NC(=O)OC(C)(C)C)c4ccco4)C[C@@](O)([C@@H](OC(=O)c4ccccc4)C12)C3(C)C` (some centres unmarked) [Compound 0843], the IC50 was less than 1 nM.

Turning to `CCCC(=O)OC1C(=O)C2(C)C(O)CC3OCC3(OC(C)=O)C2C(OC(=O)c2ccccc2)C2(O)CC(OC(=O)C(O)C(NC(=O)OC(C)(C)C)c3ccccc3)C(C)=C1C2(C)C` (centres unmarked) [Compound 1060], the IC50 is less than 1 nM.

For `C/C=C/C(=O)O[C@H]1C(=O)[C@@]2(C)C([C@H](OC(=O)c3ccccc3)[C@]3(O)C[C@H](OC(=O)[C@H](O)[C@@H](NC(=O)OC(C)(C)C)c4ccoc4)C(C)=C1C3(C)C)[C@]1(OC(C)=O)CO[C@@H]1C[C@@H]2O` (some centres unmarked) [Compound 2380], the IC50 was less than 1 nM.

Turning to `CC(=O)O[C@@]12CO[C@@H]1C[C@H](O)[C@@]1(C)C(=O)[C@H](OC(=O)C3CC3)C3=C(C)[C@@H](OC(=O)[C@H](O)[C@H](C=C(C)C)NC(=O)c4ccccc4)C[C@@](O)([C@@H](OC(=O)c4ccccc4)C12)C3(C)C` (some centres unmarked) [Compound 0890], the IC50 is less than 1 nM.

Take `CCC(=O)O[C@H]1C(=O)[C@@]2(C)C([C@H](OC(=O)c3ccccc3)[C@]3(O)C[C@H](OC(=O)[C@H](O)[C@@H](NC(=O)c4cccnc4)c4cccs4)C(C)=C1C3(C)C)[C@]1(OC(C)=O)CO[C@@H]1C[C@@H]2O` (some centres unmarked) [Compound 4121]: the IC50 is less than 10 nM.

On to `CC(=O)O[C@@]12CO[C@@H]1C[C@H](O)[C@@]1(C)C(=O)[C@H](OC(=O)C3CC3)C3=C(C)[C@@H](OC(=O)[C@H](O)[C@@H](NC(=O)OCC(C)C)c4cccs4)C[C@@](O)([C@@H](OC(=O)c4ccccc4)C12)C3(C)C` (some centres unmarked) [Compound 3129], for which the IC50 is less than 10 nM.

Regarding `CCC(=O)O[C@H]1C(=O)[C@@]2(C)C([C@H](OC(=O)c3ccccc3)[C@]3(O)C[C@H](OC(=O)[C@H](O)[C@@H](NC(=O)OC(C)(C)C)c4ccoc4)C(C)=C1C3(C)C)[C@]1(OC(C)=O)CO[C@@H]1C[C@@H]2O` (some centres unmarked) [Compound 5495], the IC50 was less than 1 nM.

Consider `CC(=O)O[C@@]12CO[C@@H]1C[C@H](O)[C@@]1(C)C(=O)[C@H](OC(=O)C3CC3)C3=C(C)[C@@H](OC(=O)[C@H](O)[C@@H](NC(=O)OC(C)C)c4cccs4)C[C@@](O)([C@@H](OC(=O)c4ccccc4)C12)C3(C)C` (some centres unmarked) [Compound 3071], for which the IC50 was less than 1 nM.

Regarding `CC(=O)OC12COC1CC(O)C1(C)C(=O)C(OC(=O)c3cccs3)C3=C(C)C(OC(=O)C(O)C(C=C(C)C)NC(=O)OC(C)(C)C)CC(O)(C(OC(=O)c4ccccc4)C21)C3(C)C` (centres unmarked) [Compound 1879], the IC50 was less than 10 nM.

Regarding `CC(=O)OC12COC1CC(O)C1(C)C(=O)C(OC(=O)c3cccs3)C3=C(C)C(OC(=O)C(O)C(NC(=O)OC(C)(C)C)c4ccoc4)CC(O)(C(OC(=O)c4ccccc4)C21)C3(C)C` (centres unmarked) [Compound 1923], the IC50 was less than 1 nM.

On to `CCC(=O)O[C@H]1C(=O)[C@@]2(C)C([C@H](OC(=O)c3ccccc3)[C@]3(O)C[C@H](OC(=O)[C@H](O)[C@@H](NC(=O)OC(C)C)c4ccco4)C(C)=C1C3(C)C)[C@]1(OC(C)=O)CO[C@@H]1C[C@@H]2O` (some centres unmarked) [Compound 3522], for which the IC50 is less than 1 nM.
